Test results taken from US20080318982A1, “Pharmaceutical Combination for the Treatment of Luts” (Pfizer, Inc., priority 2005, published 2008).

Tested on: Anaesthetized Guinea-pig
Assay: Filling cystometry in the anaesthetized guinea-pig (effects on lower urinary tract function)
Assay type: in vivo
Conditions: for % Change in Micturition Pressure / % Change in Threshold Volume: infused continuously for 60 min, vs baseline
Protocol: Animals: Female Hartley guinea pigs (body weight 300-350 grams).
Surgical procedure: The animals are anaesthetized with urethane (1.5 g/kg intraperitoneally) given as a divided dose of 80% initially and 20% 15 min later. Body temperature is maintained at 37±2° C. throughout the experiment. The bladder is exposed through a lower abdominal incision and a polyethylene catheter with a small cuff is inserted in the bladder dome and secured with a purse-string suture. The ureters are then ligatured. The bladder is replaced under the abdominal wall and the catheter is connected via a T-tube to a pressure transducer in order to measure intravesical pressure. The trachea is cannulated. The jugular vein is cannulated to allow administration of test compounds and the femoral artery is cannulated in order to collect plasma sample.
Cystometry: A series of filling cystometry cycles are performed throughout the experimental measurement period to establish baseline parameters and determine drug effect. Before each cystometry cycle, the bladder is emptied manually. Saline at room temperature is then infused continuously into the bladder via the catheter at a flow rate of 600 μL/min until a micturition occurs. The following micturition parameters are measured during each cystometry cycle: Micturition Pressure (MP, the pressure in the bladder during voiding) and Threshold Volume (ThV, volume at which micturition occurs, mL).
Evaluation of drug effect: After the determination of baseline parameters (mean of 3 micturition cycles), test substance or vehicle is administered continuously for 60 minutes. At the end of the drug infusion period, the effect of drug on cystometry parameters is determined by taking an average of the measurements made in two micturition cycles. For combination studies, the respective doses of the test compounds are infused together over a 60 min period following the measurement of baseline parameters.

Structure (SMILES) | effect on micturition pressure (in words) (Compound A 0.11 mg/kg, 0.32 mg/kg) | % Change in Micturition Pressure (Compound A 0.11 mg/kg) | % Change in Threshold Volume (Compound A 0.11 mg/kg) | % Change in Micturition Pressure (Compound A 0.32 mg/kg) | % Change in Threshold Volume (Compound A 0.32 mg/kg) | % Change in Micturition Pressure (Oxybutynin 3.18 mg/kg) | % Change in Threshold Volume (Oxybutynin 3.18 mg/kg) | effect on micturition pressure (in words) (oxybutynin 3.18 mg/kg)
CCCOc1ccc(S(=O)(=O)N2CCN(CC)CC2)cc1-c1nc2c(CC)nn(Cc3ccccn3)c2c(=O)[nH]1 [Compound A, 3-ethyl-5-[5-(4-ethylpiperazin-1-ylsulphonyl)-2-n-propoxyphenyl]-1-(pyridin-2-yl)methyl-1,6-dihydro-7H-pyrazolo[4,3-d]pyrimidin-7-one] | small reduction | −6.7% | −2.7% | −6% | +11.4% | – | – | –
CCN(CC)CC#CCOC(=O)C(O)(c1ccccc1)C1CCCCC1 (centres unmarked) [Oxybutynin, oxybutynin, reference compound] | – | – | – | – | – | +3.2% | +18.9% | small increase
